Measurements: patent publication US20150328329A1, “LIGANDS THAT TARGET HCV-E2 BINDING SITES ON CD81 AND THERAPEUTIC METHODS USING THEM” (American University of Cairo, priority 2012, published 2015)

Legend:
[1] = target: T1, recombinant CD81-LEL (GST tag) (Homo sapiens, UniProt P60033); assay: Surface plasmon resonance (Biacore T200) binding of ligands to immobilized recombinant CD81-LEL; conditions: Table A; ligand 600 μM in PBS-0.05% Tween-80; CD81-LEL-GST on CM5 chip
T1 construct: the large extracellular loop of CD81 (CD81-LEL); gift of Dr. Shoshana Levy, Stanford University
T1 sequence (P60033 113-201 limits assumed): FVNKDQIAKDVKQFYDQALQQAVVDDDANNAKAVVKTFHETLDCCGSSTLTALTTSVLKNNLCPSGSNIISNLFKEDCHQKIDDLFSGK
Description: SPR analysis was performed using a Biacore T200 workstation (GE Healthcare, NJ, USA). A recombinant form of the CD81-LEL protein with a GST tag (generously provided by Dr. Shoshana Levy, Stanford University) was used to confirm, using an established experimental technique, the binding of several ligands to the protein. Briefly, 10 μM CD81-LEL-GST diluted into 10 mM Na-Acetate buffer pH 4.5 was immobilized for 15 min at a flow speed of 5 μl/min onto a CM5 sensor chip using amine-coupling (EDC-NHS). Approximately 20,000 RU of protein were immobilized on the chip. The ligands were prepared as 600 μM solutions in PBS-0.05% Tween-80 (the running buffer) and they were introduced to the protein using a pre-programmed 3 minute association and 1 minute dissociation interval.
The binding affinity of the most tightly bound ligand in the group selected for ligand conjugate design (Ligand 1) was estimated using data collected from a series of SPR binding experiments conducted at different ligand concentrations. To obtain the kinetic and affinity data needed to estimate the Kd, the original ligand was diluted serially with running buffer to produce seven different ligand concentrations: 1024 μM, […], 256 μM, 128 μM, 64 μM, 32 μM and 0 μM. Data were fitted using a monovalent binding model.
A total of 36 ligands were tested experimentally using surface Plasmon resonance (on a Biacore T200 instrument) to identify which of the molecules calculated to bind to Sites 1 and 2 on CD81 actually bind to a recombinant form of the protein (CD81-LEL). Twenty-six of the molecules provided a positive change in response units (RU) upon introduction to a chip containing the immobilized protein (Table A), indicating the ligands bound to the protein. The measured responses for the ligands that bound varied from 2.3 to 78.4 RU. Those ligands providing the largest responses tended to be molecules that were calculated to bind more deeply inside cavities in Site 1 (ligands 30930, 98026, 7436, 5069), Site 2 (ligands 127947, 38743) or Site 4 (ligands 78623, 16631).
Experimental analysis of ligand binding to recombinant CD81 LEL. Forty ligands calculated by AutoDock to bind to sites 1 and 2 on CD81-LEL were tested experimentally using surface Plasmon resonance as described in the Materials and Methods section. Ligand code numbers are those assigned by the National Cancer Institute. […] Because the binding experiments were performed by passing the same concentration of each ligand sequentially across the same protein coated chip using both techniques, the magnitude of the responses can be used to provide an approximate ranking of binding strength.

recombinant CD81-LEL = target: T2, recombinant CD81-LEL (Homo sapiens, UniProt P60033); assay: Dual polarization interferometry (DPI) binding of ligands to immobilized recombinant CD81-LEL; conditions: for DPI Binding Response (Radians), molecule added alone to CD81: Table D, single molecule added to CD81
T2 construct: the large extracellular loop of CD81 (CD81-LEL); GST; His; Shoshana Levy Lab, Stanford (gift)
T2 sequence (P60033 113-201 limits assumed): T1 sequence (P60033 113-201 limits assumed)
Description: DPI analyses were performed using an AnaLight 4D workstation (Farfield Group, Manchester UK). The recombinant CD81-LEL was immobilized onto a Thiol AnaChip using Sulfo-GMBS as a cross-linker in PBS running buffer. Non-specific sites were blocked with digested casein. TRIS was used to cap the cross-linker, blocking any additional amines from covalently binding to the cross-linker on the chip surface. Ligands were prepared as a 20 mM stock solutions in DMSO. Each ligand was diluted to a final concentration of 500 μM in PBS just prior to injection (final DMSO concentration was 2.5%). PBS and DMSO mixed in the same ratio were used as a blank. Data collection and analysis were performed using the AnaLight Resolver.
Six of the more interesting ligand candidates being considered for use in creating a ligand conjugate (three calculated to bind to Site 1 and three calculated to bind to Site 2) were further tested to confirm binding using a second experimental technique, dual polarization interferometry. The results, shown in FIG. 6, confirmed that all six ligands bound to the protein. The relative rank in strength of binding of the Site 1 and 2 ligands, as determined by DPI, were also similar to the ranking obtained by SPR or calculated by AutoDock for the majority of the ligands. […] One reason for this observed difference in the DPI response may relate to conformational changes in the protein that occur when the small molecules bind. The change in radians measured using DPI when a ligand binds to a protein is known to result from a combination of two effects: 1) the resulting increase in mass/volume when the ligand binds to the protein on the surface of the chip and 2) a conformational change in the protein induced by the binding of the ligand. Molecules binding in the deeper cavity would be expected to have more and stronger contacts with the protein than ligands sitting exposed to solvent in shallow cavities or surface binding sites. […]

HCV E2 binding to CD81 = target: T3, HCV E2 binding to CD81 (Homo sapiens, UniProt P60033); assay: DPI assay of ligands blocking HCV E2 protein binding to CD81; conditions: Table D; E2 Protein alone gives 4.1402; reduced response = blocking
T3 sequence (P60033 113-201 limits assumed): T1 sequence (P60033 113-201 limits assumed)
Description: A subset of the ligands identified to bind to CD81 have been tested using Dual Polarization Interferometry (DPI) to determine if the ligands themselves are effective in blocking E2 binding to CD81. The experiments are conducted by first immobilizing one of the proteins (HCV E2 or CD81) on the chip used to perform the assay. The other protein is then introduced to the chip and the amount of binding is measured. This protein is then washed off and the protein and one of the ligands are then introduced to the chip. If the ligand blocks/interferes with the binding of the two proteins, the DPI response (measured in Radians) is reduced compared to when the protein is added alone. After the measurement is made, the protein and ligand are washed off and the next combination of the protein and a different ligand are added to the chip and the DPI response is measured. Similar experiments can be performed in which the protein is mixed with two or more ligands to see if they have a greater effect when combined.
Experiments have been conducted with either CD81 or HCV E2 immobilized on the chip. Six ligands have been tested to date.

[2] = target: T4, native CD81 on Raji cells (Homo sapiens, UniProt P60033); assay: Competition assay: inhibition of FITC-labeled JS-81 anti-CD81 antibody binding to native CD81 on live Raji cells (flow cytometry); type: cell-based
T4 construct: endogenous in cells; host or cells: Raji (human B cell line)
T4 sequence (P60033 1-236): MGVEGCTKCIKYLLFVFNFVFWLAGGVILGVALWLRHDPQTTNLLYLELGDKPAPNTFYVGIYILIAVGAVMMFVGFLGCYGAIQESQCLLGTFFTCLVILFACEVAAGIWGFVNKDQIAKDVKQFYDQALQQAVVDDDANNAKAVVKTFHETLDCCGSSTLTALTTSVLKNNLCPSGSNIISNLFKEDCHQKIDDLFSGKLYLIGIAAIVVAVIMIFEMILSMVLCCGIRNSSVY
From the text: A subset of these ligands and some of those listed in the patent have been tested to identify those ligands that bind to the correct region of the CD81 protein and for binding to native CD81 on living cells (a Raji cell line). This assay tests three concentrations of the ligand to determine if the ligand is capable of inhibiting the binding of an antibody called JS-81. This antibody is known to bind to the region of the CD81 protein we have targeted. If the ligand decreases JS-81 binding as you increase the concentration of the ligand, it is 1) binding to native CD81 on the Raji cells and 2) it is binding to the correct region of the protein.
For antibody neutralization assay Raji cells were used, a human B cell line that expressed high amounts of CD81 on the surface (data not shown). Cells were grown in RPMI medium (10% FCS, 1% penicillin/streptomycin, 1% L-glutamine, 1% non-essential amino acids, 1% sodium pyruvate, pH 7.4, at 37° C. with 5% CO2). 2×10^5 cells were incubated with or without different concentrations (50 μM, 100 μM, 400 μM and 1 mM) of indicated inhibitor for 20 min at room temperature, subsequently 1 ul (16 ng/μl) of FITC-labeled anti CD81 antibody (BD Pharmingen, 551108) was added to the cells and incubated for 20 min (antibody titration was performed to obtain a working dilution range, data not shown). Cells were washed and analyzed by flow cytometry using fluorescence-activated cell sorting (FACS) (BD FACSCalibur, software: Cell Quest Pro). Mean Fluorescence Intensity MFI was calculated using Flowjo software (TreesStar, www.flowjo.com).

[3] = target: recombinant CD81-LEL protein (large extracellular loop of human CD81) with a GST tag (human) (UniProt P60033); assay: DPI, E2 protein alone added to immobilised CD81
[4] = target: recombinant CD81-LEL protein (large extracellular loop of human CD81) with a GST tag (human) (UniProt P60033); assay: DPI, E2 protein added to immobilised CD81 together with small molecule 30930
[5] = target: recombinant CD81-LEL protein (large extracellular loop of human CD81) with a GST tag (human) (UniProt P60033); assay: DPI, E2 protein added to immobilised CD81 together with small molecule 93033
[6] = target: recombinant CD81-LEL protein (large extracellular loop of human CD81) with a GST tag (human) (UniProt P60033); assay: DPI, E2 protein added to immobilised CD81 together with small molecule 165665
[7] = target: recombinant CD81-LEL protein (large extracellular loop of human CD81) with a GST tag (human) (UniProt P60033); assay: DPI, E2 protein added to immobilised CD81 together with small molecule 689002
[8] = target: recombinant CD81-LEL protein (large extracellular loop of human CD81) with a GST tag (human) (UniProt P60033); assay: DPI, E2 protein added to immobilised CD81 together with small molecules 93033 and 16631
[9] = target: recombinant CD81-LEL protein (large extracellular loop of human CD81) with a GST tag (human) (UniProt P60033); assay: DPI, E2 protein added to immobilised CD81 together with small molecules 689002 and 93033
[10] = target: recombinant CD81-LEL protein (large extracellular loop of human CD81) with a GST tag (human) (UniProt P60033); assay: DPI, E2 protein added to immobilised CD81 together with small molecules 93033 and 165665
[11] = target: recombinant CD81-LEL protein (large extracellular loop of human CD81) with a GST tag (human) (UniProt P60033); assay: DPI, E2 protein added to immobilised CD81 together with small molecules 30930 and 68365 (so in the source)

| Compound | SPR Response Units [1] | DPI Binding Response (Radians), molecule added alone to CD81 (recombinant CD81-LEL) | DPI Binding Response (Radians), E2 Protein added to CD81 together with ligand(s) (HCV E2 binding to CD81) | Inhibition of JS-81 Binding (%) ([2]; 50 μM ligand) | Inhibition of JS-81 Binding (%) ([2]; 100 μM ligand) | Inhibition of JS-81 Binding (%) ([2]; 400 μM ligand) | DPI Response (Radians), ligand added to CD81 protein (recombinant CD81-LEL; Table B and b111, ligand 500 μM in PBS, 2.5% DMSO) | DPI Binding Response (Radians) [3] | DPI Binding Response (Radians) [4] | DPI Binding Response (Radians) [5] | DPI Binding Response (Radians) [6] | DPI Binding Response (Radians) [7] | DPI Binding Response (Radians) [8] | DPI Binding Response (Radians) [9] | DPI Binding Response (Radians) [10] | DPI Binding Response (Radians) [11] |
| --- | --- | --- | --- | --- | --- | --- | --- | --- | --- | --- | --- | --- | --- | --- | --- | --- |
| O=C(O)c1cc2cc(OCc3ccccc3)ccc2[nH]1 [Ligand 30930] | 67.7 RU | 1.102 Radians | 2.5262 Radians | 0% | 0% | 14% | – | – | – | – | – | – | – | – | – | – |
| O=C(Cn1ccc(=O)[nH]c1=O)Nc1ccc(C(=O)O)c(O)c1 [Ligand 93033] | 16.9 RU | 0.7245 Radians | 0.2546 Radians | 0% | 0% | 16% | 0.7245 Radians | – | – | – | – | – | – | – | – | – |
| HCV E2 protein (ligand) | – | – | – | – | – | – | – | 4.14 Radians | 2.53 Radians | 0.255 Radians | -0.0047 Radians | 2.7 Radians | 0.531 Radians | 0.401 Radians | 0.765 Radians | 1.45 Radians |
